From US6930208B2, “3-Keto- or 3- oxime-ether-substituted benzoylcyclohexanediones” (Bayer CropScience GmbH, priority 2002, dated 2005)

What was measured:
Experiment in all cases: Plant tolerance (greenhouse, post-emergence)
Assay type in all cases: in vivo
Settings in all cases: visual scoring four to five weeks after application
wheat = system: wheat
Procedure: (§1) Seeds of mono- and dicotyledonous harmful plants are placed in sandy loam in cardboard pots, covered with soil and grown in the greenhouse under good growth conditions. 2 to 3 weeks after sowing, the test plants are treated in the three-leaf stage. The compounds according to the invention, which are formulated as wettable powders or as emulsion concentrates, are sprayed at various dosages onto the surface of the green plant parts at an application rate of 600 to 800 l of water per ha (converted). After the test plants have been left to stand in the greenhouse for 3 to 4 weeks under optimal growth conditions, the effect of the compounds is scored visually. The chosen compounds according to the invention have an outstanding activity against a broad spectrum of economically important monocotyledonous and dicotyledonous harmful plants.
(§2) In further greenhouse experiments, seeds of crop plants and of monocotyledonous and dicotyledonous harmful plants are placed in sandy loam, covered with soil and placed in the greenhouse until the plants have developed two to three true leaves. Then, they are treated with the compounds of the formula (I) according to the invention as described above under item 1. […] Thus, for example, the compounds of examples Nos. 4.16 and 4.98 cause, at a dosage of 320 g/ha, no damage in wheat, rice and maize. The compounds of examples Nos. 1.4, 1.8, 4.16, 4.19 and 4.98 caused, at 80 g/ha, no damage in wheat, rice and maize.

maize = system: maize
Procedure: as §1, §2

rice = system: rice
Procedure: as §1, §2

CCC(=O)COc1c(S(C)(=O)=O)ccc(C(=O)C2=C(O)CCCC2=O)c1Cl [Example 1.4]
no damage: damage in wheat (wheat; 80 g/ha) | damage in maize (maize; 80 g/ha) | damage in rice (rice; 80 g/ha)

CC1(C)CC(=O)C(C(=O)c2ccc(S(C)(=O)=O)c(OCC(=O)C(C)(C)C)c2Cl)=C(O)C1 [Example 1.8]
no damage: damage in wheat (wheat; 80 g/ha) | damage in maize (maize; 80 g/ha) | damage in rice (rice; 80 g/ha)

CCON=C(C)COc1c(S(C)(=O)=O)ccc(C(=O)C2=C(O)CCCC2=O)c1Cl [Example 4.16]
no damage: damage in wheat (wheat; 80 g/ha) | damage in wheat (wheat; 320 g/ha) | damage in maize (maize; 80 g/ha) | damage in maize (maize; 320 g/ha) | damage in rice (rice; 80 g/ha) | damage in rice (rice; 320 g/ha)

C=CCON=C(C)COc1c(S(C)(=O)=O)ccc(C(=O)C2=C(O)CCCC2=O)c1Cl [Example 4.19]
no damage: damage in wheat (wheat; 80 g/ha) | damage in maize (maize; 80 g/ha) | damage in rice (rice; 80 g/ha)

CCON=C(CC)COc1c(S(C)(=O)=O)ccc(C(=O)C2=C(O)CCCC2=O)c1Cl [Example 4.98]
no damage: damage in wheat (wheat; 80 g/ha) | damage in wheat (wheat; 320 g/ha) | damage in maize (maize; 80 g/ha) | damage in maize (maize; 320 g/ha) | damage in rice (rice; 80 g/ha) | damage in rice (rice; 320 g/ha)
